This is an account of results in patent US9884832B2 (priority 2011, dated 2018).

The target in experiment [1] is AM2 S31N (serine→asparagine mutation at residue 31 in the M2 protein) (Influenza A virus, UniProt P0DOF5, S31N). The experiment is classed as cell-based, influenza virus A/Udorn/72.
Experiment [2] addresses AM2 V27A (valine→alanine mutation at residue 27 in the M2 protein) (Influenza A virus, UniProt P0DOF5, V27A). The experiment is classed as cell-based, influenza virus A/Udorn/72.

SMILES strings stand for the structures.

For the compound `c1ccn2c(CNC34CC5CC(CC(C5)C3)C4)cnc2c1` [Example 203a, Adamantan-1-yl-imidazo[1,2-a]pyridin-3-ylmethyl-amine], the “S31N OOcyte Inhibition at 100 uM (%)” value in experiment [1] is on record as “B (key: (A)=31-95%; (B)=0-30%)”. Moreover, the “V27A OOcyte Inhibition at 100 uM (%)” value in experiment [2] was “B (key: (A)=31-95%; (B)=0-30%)”.
As to `F[B-](F)(F)C[NH2+]C12CC3CC(CC(C3)C1)C2` [Example 204a, N-[(Trifluoro-4-boranyl)methyl]adamantan-1-aminium], the “S31N OOcyte Inhibition at 100 uM (%)” value in experiment [1] is “B (key: (A)=31-95%; (B)=0-30%)”. Further, in experiment [2], the “V27A OOcyte Inhibition at 100 uM (%)” value is “B (key: (A)=31-95%; (B)=0-30%)”.
For the compound `c1csc(-c2ccc(CNC3C4CC5CC(C4)CC3C5)s2)c1` (stereo not drawn) [Example 205a, N-([2,2′-bithiophen]-5-ylmethyl)adamantan-2-amine], the “S31N OOcyte Inhibition at 100 uM (%)” value in experiment [1] is recorded as “A (key: (A)=31-95%; (B)=0-30%)”. Further, the “V27A OOcyte Inhibition at 100 uM (%)” value in experiment [2] is recorded as “B (key: (A)=31-95%; (B)=0-30%)”.
